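Test compounds were applied to cells in 96-well plates for 48 hours at 5 doses. GI50 is the concentration that inhibits growth by half.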 Active and inactive are the calls of the source. Cut-off read from the data, not from the text of the source: active = GI50 up to about 1.1 µM and inactive = higher.
Tests used:
Assay in all cases: NCI anticancer screen, dose series, 48 h
A498 = system: A498
HCT-116 = system: HCT-116
HCT-15 = system: HCT-15
HL-60 = system: HL-60
HOP-62 = system: HOP-62
Hs-578T = system: Hs-578T
IGROV-1 = system: IGROV-1
MDA-MB-435 = system: MDA-MB-435
MOLT-4 = system: MOLT-4
Malme-3M = system: Malme-3M
NCI/ADR-RES = system: NCI/ADR-RES
OVCAR-3 = system: OVCAR-3
OVCAR-5 = system: OVCAR-5
RPMI-8226 = system: RPMI-8226
RXF 393 = system: RXF 393
SF-295 = system: SF-295
SK-MEL-2 = system: SK-MEL-2
SW-620 = system: SW-620
T47D = system: T47D

Row | Compound | GI50 (A498) | GI50 (HCT-116) | GI50 (HCT-15) [µM] | GI50 (HL-60) | GI50 (HOP-62) | GI50 (Hs-578T) | GI50 (IGROV-1) | GI50 (MDA-MB-435) | GI50 (MOLT-4) | GI50 (Malme-3M) | GI50 (NCI/ADR-RES) | GI50 (OVCAR-3) | GI50 (OVCAR-5) | GI50 (RPMI-8226) | GI50 (RXF 393) | GI50 (SF-295) | GI50 (SK-MEL-2) | GI50 (SW-620) | GI50 (T47D)
1 | CCN(CC)C(=O)Cn1c2ccccc2[n+]2cc(N)ccc12 | > 100 µM (inactive) | > 100 µM (inactive) | > 100 | > 100 µM (inactive) | > 100 µM (inactive) | > 100 µM (inactive) | > 100 µM (inactive) | > 100 µM (inactive) | > 100 µM (inactive) | > 100 µM (inactive) | > 100 µM (inactive) | > 100 µM (inactive) | > 100 µM (inactive) | > 100 µM (inactive) | > 100 µM (inactive) | > 100 µM (inactive) | > 100 µM (inactive) | > 100 µM (inactive) | > 100 µM (inactive)
2 | Cc1ccc(/N=N/c2c(C)nn(C(=O)CC(=O)Nc3ccccc3)c2C)cc1C | > 100 µM (inactive) | > 100 µM (inactive) | > 100 | > 100 µM (inactive) | > 100 µM (inactive) | > 100 µM (inactive) | > 100 µM (inactive) | > 100 µM (inactive) | > 100 µM (inactive) | > 100 µM (inactive) | > 100 µM (inactive) | > 100 µM (inactive) | > 100 µM (inactive) | > 100 µM (inactive) | > 100 µM (inactive) | > 100 µM (inactive) | > 100 µM (inactive) | > 100 µM (inactive) | > 100 µM (inactive)
3 | CCOC(=O)C1(Cc2ccc(C)cc2)Cc2ccc(C)cc2C1=O (stereo not drawn) | 23.5 µM (inactive) | 6.73 µM (inactive) | 7.85 | 2.55 µM (inactive) | 21.1 µM (inactive) | 16.3 µM (inactive) | 21.1 µM (inactive) | 2.81 µM (inactive) | 4.23 µM (inactive) | 16.4 µM (inactive) | 5.01 µM (inactive) | 18.5 µM (inactive) | 52.5 µM (inactive) | 12.2 µM (inactive) | 4.6 µM (inactive) | 15.4 µM (inactive) | 14.6 µM (inactive) | 4.71 µM (inactive) | 12.4 µM (inactive)
4 | CCC1CCC2c3c([nH]c4ccc(C)cc34)C3C(=O)N(N(C)C)C(=O)C3C2C1 (stereo not drawn) | > 100 µM (inactive) | 7.36 µM (inactive) | 5.78 | 3.05 µM (inactive) | > 27 µM (inactive) | 4.91 µM (inactive) | 5.11 µM (inactive) | 1.37 µM (inactive) | 14.5 µM (inactive) | 1.02 µM (active) | 4.35 µM (inactive) | 0.787 µM (active) | > 86.5 µM (inactive) | 19 µM (inactive) | 8.05 µM (inactive) | 5.11 µM (inactive) | 24.6 µM (inactive) | 13.8 µM (inactive) | 7.93 µM (inactive)
5 | C=CCN1C(=O)/C(=C/c2ccc(C)cc2)N=C1SC/C=C/C | 24.3 µM (inactive) | 18.8 µM (inactive) | 33.4 | 15.8 µM (inactive) | > 100 µM (inactive) | 21.8 µM (inactive) | 51.6 µM (inactive) | 34.4 µM (inactive) | 14.8 µM (inactive) | 32.1 µM (inactive) | 47.3 µM (inactive) | 40.8 µM (inactive) | 43.6 µM (inactive) | 14.5 µM (inactive) | 11.5 µM (inactive) | 36.8 µM (inactive) | 24.8 µM (inactive) | 39.4 µM (inactive) | 16.3 µM (inactive)
6 | CN(NC(=O)CCCl)C1=NCCN1 | > 100 µM (inactive) | > 100 µM (inactive) | > 100 | > 100 µM (inactive) | > 100 µM (inactive) | > 100 µM (inactive) | > 100 µM (inactive) | > 100 µM (inactive) | > 100 µM (inactive) | > 100 µM (inactive) | > 100 µM (inactive) | > 100 µM (inactive) | > 100 µM (inactive) | > 100 µM (inactive) | > 100 µM (inactive) | > 100 µM (inactive) | > 100 µM (inactive) | > 100 µM (inactive) | > 100 µM (inactive)
7 | Cc1cc(S(=O)(=O)Nc2nc(Nc3ccc4ccccc4c3)n[nH]2)c(S)cc1Cl | 26.4 µM (inactive) | 41.5 µM (inactive) | 42.3 | > 100 µM (inactive) | 28.1 µM (inactive) | 22.2 µM (inactive) | 52.8 µM (inactive) | 24.9 µM (inactive) | > 100 µM (inactive) | 89.7 µM (inactive) | > 100 µM (inactive) | 23.2 µM (inactive) | 73.8 µM (inactive) | > 100 µM (inactive) | 75.2 µM (inactive) | 30.2 µM (inactive) | 24 µM (inactive) | 44.7 µM (inactive) | 63.7 µM (inactive)
